This note sets out measurements from a melting point compilation (Tetko et al.; mined from patent text by program, amines drawn as free bases though some values may be those of a salt).

One may read the melting point as the temperature, or range, at which the solid turns liquid. For the molecule `CCC(=NOCc1ccc(Cl)cc1)c1cc(Cl)ccc1NS(=O)(=O)C(F)(F)F`, the melting point fell in the range of 54 to 55 °C.

Consider `COc1cccc(CC(=O)O)c1OCCCc1cn(-c2ncc(C(F)(F)F)cn2)nc1C(C)C`, for which the melting point is 131 to 132 °C.

With `CCNC(=O)c1ccc2oc(C(=O)C(Cc3ccccc3)NC(=O)Cn3c(-c4ccc(F)cc4)ncc(NC(=O)OCc4ccccc4)c3=O)nc2c1` (stereo unspecified), the melting point was 256 to 261 °C.

In the case of `NCCCCOc1cccc(CN2CCCCC2)c1`, the melting point fell in the range of 92 to 93 °C.

`COc1cc(F)cc(-c2ccc3c(c2)C(C)(C)OC(=S)N3)c1` gave a melting point of 170 to 171 °C.

`CC(=O)NS(=O)(=O)c1cccc(-c2cccc(-c3cc(-c4ccc(C(F)(F)F)cc4)cc(C)n3)n2)c1` showed a melting point of 244 °C.

For `O=C(NCC12CC3CC(CC(C3)C1)C2)c1cc([N+](=O)[O-])ccc1Cl`, the melting point was found to be 178 °C.

The molecule `COc1ccc(C(=O)Nc2ccccc2)cc1NCc1ccc(C#N)cc1` gave a melting point of 130 to 133 °C.

Take `CCc1cc(C(=O)c2ccccc2Cl)c(-n2c(C)nnc2CNC(=O)Nc2cccc(CC(=O)OC(C)(C)C)c2)s1`: the melting point is 178 to 179 °C.

Turning to `COCOc1c(C(C)(C)C)cc(C=[N+]([O-])C(C)(C)C)cc1C(C)(C)C`, the melting point lay within 202 to 206 °C.

In turn, `CN(C)C(=O)Oc1ccc2nc(S(N)(=O)=O)sc2c1` returned a melting point of 208 to 209 °C.

With `c1ccc(-c2nn3cnnc3c3ccccc23)cc1`, the melting point is 198 to 199 °C.

For `COC(=O)Nc1ccc(Br)cn1`, the melting point was 191 to 192 °C.

Take `Cc1ccc(-c2ccc(C(=O)Nc3ccc4cc(CN5CCCC5)cnc4c3)c(F)c2)cc1`: the melting point came to 173 °C.

Take `CCC(=NOC)c1cc(I)c(O)c(CN)c1`: the melting point lay in the range of 156 to 157 °C.

As for `NC(=NCC(F)(F)F)Nc1ccn(CCO)n1`, the melting point stood at 82 °C.

Molecule `COC(=O)C1(C(=O)OC)Cc2cc(Br)ccc2N1` displayed a melting point of 113 to 155 °C.

Turning to `Cc1ccc(S(=O)(=O)O[C@@H]2C[C@@H](C(=O)NC(C)(C)C)N(C(=O)OC(C)(C)C)C2)cc1`, the melting point was in the range of 125 to 127 °C.

For `CS(=O)(=O)N[C@@H]1CCCC[C@H]1Nc1nc(Nc2ccc3c(c2)CCC(F)(F)CC3)ncc1Cl`, the melting point is 118 to 128 °C.

For `CC(C)(C)c1cc(Br)c(O)c(C=O)c1Cl`, the melting point lay within 103 to 105 °C.

`CC(C)(C)c1ccc(C=NOCCOc2ccc(C(=O)O)c(O)c2)cc1` displayed a melting point of 161 to 163 °C.

`COc1cccc(OC)c1-c1ccc(CC[C@H](NC(=O)c2c(Cl)cccc2Cl)C(=O)O)cc1`: the melting point is 105 to 107 °C.

In the case of `COc1ccc2occ(CCN3CCN(c4cc(Cl)cc5cccnc45)CC3)c2c1`, the melting point came out at 72 °C.

Molecule `Cc1ccc2c(c1)c1c(n2CCCl)C(=O)CCC1` registered a melting point of 108 °C.

`CCCc1c(OCc2ccccc2)ccc2c1OC(CCC(=O)O)(CCC(=O)O)CC2=O` showed a melting point of 202 to 205 °C.

`COc1ccc(CCN(C)CCc2ccc(NC(=O)c3cccc4c(=O)c5ccccc5[nH]c34)cc2)cc1OC` registered a melting point of 180 °C.

Take `CCOC(=O)C1=C(C)NC(O)(C(Cl)(Cl)Cl)C(C(=O)OCC)C1c1cccc([N+](=O)[O-])c1` (stereo unspecified): the melting point lay in the range of 125 to 126 °C.

In turn, `CCCc1ccccc1OCCCOc1ccc2c(=O)cc(C(=O)O)oc2c1CC` registered a melting point of 198 to 199 °C.

`CC(C)C1C(=O)N(CC(=O)O)C(c2ccccc2)=CN1C(=O)c1cccnc1` (racemic) yielded a melting point of 230 to 240 °C.

Molecule `CN(C(=O)CCSC(c1ccccc1)(c1ccccc1)c1ccccc1)c1nnc(-c2cccnc2)s1` registered a melting point of 60 to 75 °C.

`CNS(=O)(=O)c1cccnc1S(=O)(=O)NC(=O)Nc1nc(OC)cc(OC)n1` came in with a melting point of 147 to 148 °C.

`Cc1nc(-c2cn(Cc3ccc(C(F)(F)F)cc3)nn2)sc1C(=O)NCc1ccccc1` showed a melting point of 131 to 132 °C.

On to `CC1=C(C(=O)OC(C)C)C(c2cccc([N+](=O)[O-])c2)N(C(=O)N(C)C)C(=O)N1` (stereo unspecified), for which the melting point lay within 165 to 166 °C.

`Cc1ccc(OC2SCC(O)C(O)C2O)c(-c2ccoc2)n1` (stereo unspecified) gave a melting point of 162 °C.

For `COc1ccc(CN2CCC(c3cc(-c4ccc(Cl)cc4)[nH]n3)CC2)cc1`, the melting point lay in the range of 166 to 168 °C.

With `CSC1C(=O)Nc2cc(-c3ccccc3)ccc21` (stereo unspecified), the melting point lay in the range of 177 to 178 °C.

For the molecule `Cc1c(SCCN)ccnc1CSc1nc2ccccc2[nH]1`, the melting point lay within 158 to 160 °C.

As for `COc1ccc(-c2ccc(C(=O)Nc3cc4ncc(CN5CCCC5)cc4cc3Cl)cc2)cc1`, the melting point amounted to 184 °C.

For the molecule `COc1cc(OC)cc(-c2nc[nH]c2-c2ccc(OC(F)(F)F)c(N)c2)c1`, the melting point was 182 to 184 °C.

Molecule `COC1CCc2c(cc(-c3ccccc3)n2-c2ccc(O)c(C(=O)O)c2)C1` (stereo unspecified) gave a melting point of 207 to 210 °C.

`CNS(=O)(=O)C(=O)CCOc1cc(Oc2nn(C)c(C(F)(F)F)c2Cl)ccc1[N+](=O)[O-]`: the melting point is 170 to 172 °C.

As to `O=S(Sc1ccccc1)c1ccccc1` (stereo unspecified), the melting point lay in the range of 69 to 70 °C.

`CCCCc1ncc(/C=C(\Cc2cccs2)C(=O)O)n1Cc1ccc([N+](=O)[O-])cc1` came in with a melting point of 198 to 200 °C.

As to `CCOC(=O)C(=O)Nc1ccc2cccc([N+](=O)[O-])c2c1[N+](=O)[O-]`, the melting point is 233 °C.

In turn, `CC(C)S(=O)(=O)NC(=O)c1cccc(N)c1` returned a melting point of 190 to 193 °C.

Turning to `COc1ccccc1NCN1C(=O)CN(C)C1=O`, the melting point lay within 93 to 96.5 °C.

In turn, `CN(C(=O)OC(C)(C)C)C1CC=C(c2c[nH]c3cc([N+](=O)[O-])ccc23)CC1` (stereo unspecified) yielded a melting point of 208 to 210 °C.

`FC(F)(F)c1cc(Cl)c2nc(CCl)cn2c1` showed a melting point of 75 to 77 °C.

For the molecule `CCCCCc1ccc2cc(Nc3ccc(O)cc3)ccc2c1`, the melting point fell in the range of 134 to 135 °C.

`CC(C)Oc1cccc(N(C)C(=O)N(C)Cc2c(-c3ccccc3)c3cc(Cl)ccc3c(=O)n2C)c1` registered a melting point of 143 to 144 °C.

Take `CN(C(CCn1c(=O)cc(C(F)(F)F)[nH]c1=O)C(=O)NO)S(=O)(=O)c1ccc(Oc2ccncc2)cc1` (stereo unspecified): the melting point was 116 to 118 °C.

Molecule `Cc1cc2c(=O)[nH][nH]c(=O)c2n1Cc1ccccc1` came in with a melting point of 322 to 324 °C.

`Cc1nc(-c2cccnc2)cs1` yielded a melting point of 81 °C.

Molecule `CCOC(=O)c1cc(-c2ccc(OCc3ccccc3)cc2)n[nH]1` came in with a melting point of 160 to 170 °C.

In turn, `CCCCc1nc2c(N)nc3ccccc3c2n1CCCNC(=O)OC(C)(C)C` registered a melting point of 193 °C.

Take `COc1ccc2cc(C(=O)CCCCC(=O)N(C)O)ccc2c1`: the melting point lay within 116 to 118 °C.

With `CC(=NC12CC3CC(CC(C3)C1)C2)NC12CC3CC(CC(C3)C1)C2`, the melting point was in the range of 255 to 258 °C.

Turning to `COc1ccc(-c2ccc3c(c2)S(=O)(=O)NC(C2CCCCC2)N3)c(OC)c1` (stereo unspecified), the melting point was in the range of 208 to 213 °C.

The molecule `O=C(NCCCc1ccncc1)N(CCC12CC3CC(CC(C3)C1)C2)C1CC1` yielded a melting point of 108 to 116 °C.

For `O=C1OCCN1c1ccc([N+](=O)[O-])cc1Cl`, the melting point fell in the range of 94 to 96 °C.

Consider `CC(C)(C)c1cc(C(=O)c2nccs2)cc(C(C)(C)C)c1O`, for which the melting point lay in the range of 106 to 108 °C.

The molecule `Cc1c(C(=O)Cl)cccc1S(=O)(=O)CCCl` had a melting point of 67 to 70 °C.

The molecule `CC1(C)SC(c2ccccc2C(=O)O)NC1C(=O)O` (stereo unspecified) came in with a melting point of 185 to 186 °C.

Turning to `CNCc1cc2c(=O)c(C(=O)NCc3ccc(Cl)cc3)cn(C)c2s1`, the melting point is 196 to 199 °C.

`O=C(O)Cc1cccc(OCCCc2cc(-c3ccc(C(F)(F)F)cc3)no2)c1` came in with a melting point of 126 to 127 °C.

As to `CC(=O)OCC=Cc1ccccc1S(N)(=O)=O`, the melting point is 94 to 95 °C.

Consider `CC(C)N1CCC(NC(=O)Nc2ccccc2CCc2cc(C(C)(C)C)c(O)c(C(C)(C)C)c2)CC1`, for which the melting point was in the range of 191 to 193 °C.

Regarding `CC1=C(C(=O)OC(C)C)C(c2cccc(Cl)c2Cl)N(C(=O)OC(C)C)C(=S)N1` (stereo unspecified), the melting point was 179 to 181 °C.

In turn, `COc1ccc(Oc2cnccc2N)c2ccccc12` returned a melting point of 126 to 129 °C.

In turn, `Nc1ncnc2c1ncn2[C@@H]1O[C@H](CSCCO)[C@@H](O)[C@H]1O` had a melting point of 198 to 201 °C.

`CC(CCCc1ccccc1)c1cc(O)c2c(c1)N1C(=O)CCC1CC2=O` (stereo unspecified) showed a melting point of 127 to 130 °C.

`O=[N+]([O-])c1cccc2nc3c(nc12)N1CCCCC1CO3` (stereo unspecified) gave a melting point of 182 to 184 °C.

Molecule `Cc1c(SCCCSc2ccc3ncc([N+](=O)[O-])n3n2)ccnc1CCl` had a melting point of 155 to 156 °C.

For the molecule `COc1ccc(C[C@H](NC(=O)OCc2ccccc2)C(=O)N2CCN(CC(=O)OC(C)(C)C)C(=O)[C@@H]2CCCNC(=O)OCc2ccccc2)cc1`, the melting point was 138 to 140 °C.

On to `Cc1cccc(NC(=O)NCCC(=O)N(c2ccccc2)c2ccccc2)c1`, for which the melting point came out at 179 °C.

`COC(=O)[C@H](O)[C@@H](N)c1ccc(F)cc1` returned a melting point of 105 °C.

In the case of `CCCCN1CCN(NC(=O)c2cc(Cl)c(N)cc2OC)CC1`, the melting point was 174 °C.

Consider `COC(=O)CNC(=O)OC1c2ccccc2C(=O)N1c1ccc2ccc(Cl)nc2n1` (stereo unspecified), for which the melting point lay within 208 to 210 °C.

For `O=C1NCCc2cc(I)ccc21`, the melting point is greater than 300 °C.

On to `COc1cc(OC)c(C(=O)C=Cc2ccc(C)cc2)c(OP(=O)(O)O)c1`, for which the melting point fell in the range of 81 to 83 °C.

Molecule `CCOC(=O)c1cn(CCc2ccccc2)c2oc(CN3CCOCC3)cc2c1=O` showed a melting point of 150 to 153 °C.

As for `O=C(O)C(CC1CCCC1)c1ccc(-c2ccncc2)cc1` (stereo unspecified), the melting point was 118 to 121 °C.

Turning to `O=C(O)c1ccc(SC(Cn2ccnc2)c2cccnc2)cc1` (stereo unspecified), the melting point was in the range of 80 to 83 °C.

On to `Cc1ccc(S(=O)(=O)N2CCCC2c2ccsc2)cc1` (racemic), for which the melting point stood at 114 °C.

`COc1cc(-c2nc(NC(=O)c3c(C)c4cc(C)ccc4n3CC(=O)O)sc2CCC2CCCCC2)c(OC)cc1Cl` displayed a melting point of 151 to 160 °C.

The molecule `CCOc1cc(C(C)C)ccc1C1CCN(CCCCNC(=O)c2ccc(NC(=O)c3ccc(Cl)cc3)cc2)CC1` came in with a melting point of 242 °C.
